Entries after “also recorded” stand apart in the source; their conditions may differ.
How the values were obtained:
Assay type in all cases: cell-based, human
[1] = tested on: AMO1, H929 and KMS11 MM cells; assay: Phagocytosis assay of MM cells by monocyte-derived DCs
Protocol: Mo-DCs were generated from CD14+ peripheral blood monocytes were positively selected using magnetic beads (Miltenyi Biotec) and cultured for 6 days in mo-DC differentiation medium containing GM-CSF and IL-4 (130-094-812; Miltenyi Biotec) to generate Mo-DCs. AMO1, KMS11 and H929 cells lines, as well as patient MM cells, were stained with CellTrace™ Far Red (ThermoFisher Scientific), cultured with or without BTZ (for 16 h), and then incubated in 48-well plates for 4 h at 1:1 ratio with CellTrace™ CFSE stained Mo-DCs. Cells were then collected, and phagocytosis analysis was performed by flow cytometry and confocal microscopy. Analagous phagocytosis experiments was performed using 5TGM1 murine MM and immature murine DC line JAWSII.
Collected cells were analyzed using the BD LRSFortessa™ X-20 flow cytometer. Mo-DCs that engulfed MM cells were CFSE and FAR-RED double positive. Fold increase in percentage of double positive DCs after co-culture with BTZ treated vs untreated MM cells was compared.
Mo-DCs were generated from CD14+ peripheral blood monocytes from healthy donors, positively selected using magnetic beads (Miltenyi Biotec), cultured for 6 days in mo-DC differentiation medium containing GM-CSF and IL-4 (130-094-812; Miltenyi Biotec). AMO1 and NCI-H929 cells lines, as well as patient MM cells, were stained with CellTrace™ Far Red (ThermoFisher Scientific), cultured with or without BTZ for 16 h, and then incubated in 48-well plates for 4 h at 1:1 ratio with CellTrace™ CFSE stained Mo-DCs. Cells were then collected, and phagocytosis analysis was performed by flow cytometry and confocal microscopy. Analagous phagocytosis experiments were performed using 5TGM1 murine multiple myeloma and JAWSII cell line that was used as source of immature murine DCs.
Flow cytometry-based assay: Collected cells were analyzed using the BD LRSFortessa X-20 flow cytometer. Mo-DCs that engulfed MM cells were CFSE and FAR-RED double positive. Fold increase in percentage of double positive DCs after co-culture with BTZ treated vs untreated MM cells was compared.

[2] = tested on: T cells; assay: Analysis of T cell priming (co-culture of MM cells, DCs and T cells)
Protocol: DCs were generated from freshly isolated PBMCs as previously described. T cells were negatively selected from CD14− PBMCs using the Pan T cell Isolation Kit (Miltenyi Biotec) and frozen until immature DCs were generated. Either untreated or BTZ-treated MM cells were co-cultured with DCs and T cells for 5 days. T cells and DCs were also cultured in the absence of MM cells and in the presence of BTZ to assess the direct effects of drug on T cells and DCs. After 5 day co-culture, cells were treated with Dynabeads™ Human T-Activator CD3/CD28 (Cat. #11131D, ThermoFisher Scientific) 5 h before analysis, and with GolgiStop™ and GolgiPlug™ (Cat. #554724 and Cat. #555029, BD Biosciences) 3 h before analysis, following the manufacturer's instructions. Cells were then collected and T cell populations were analyzed by CyTOF analysis.
DCs were generated from healthy donors PBMCs as described above (“Generation of Mo-DCs” section). T cells were negatively selected from CD14-PBMCs from the same donors using the Pan T cell Isolation Kit (Miltenyi Biotec) and frozen until immature DCs were generated. Either untreated or BTZ-treated multiple myeloma cells were co-cultured with DCs and T cells for 5 days. T cells and DCs were similarly cultured in the absence of multiple myeloma cells and in the presence of BTZ. Before analysis, cells were treated with Dynabeads™ Human T-Activator CD3/CD28 (#11131D, ThermoFisher Scientific), and with GolgiStop™ and GolgiPlug™ (#554724 and #555029, BD Biosciences). T cell populations were analyzed using 10 color flow-cytometry with the following Abs: CD3-BV605 (#317322), CD8-FITC (#344704), CD4-PerCP/Cyanine5.5 (#317428), CD45RO-APC (#304210), CCR7-PE (#353204), CD69-PE/Cyanine7 (#310912), and IL-2-BV785 (#500348), IFNγ-BV421 (#502532) (BioLegend); and PD1-Super Bright 702 (#67-998-582). LIVE/DEAD™ Fixable Aqua dead Cell Stain(#L34966) (ThermoFisher Scientific) was also added to discriminate dead cells. Intracellular staining for IL-2 and IFNγ was performed using the Fixation/Permeabilization Solution Kit (BD Biosciences).
When T cell experiments were performed using patient multiple myeloma cells, the entire population of autologous BMMCs was cultured in presence and absence of BTZ and analyzed after 5 days. Data from experiments performed using multiple myeloma cell lines were analyzed with a bioinformatic semiautomated pipeline (Perez et al. (2020) Blood; 136(2):199-209). Briefly, flow cytometry files were entered in a custom R script which includes different bioinformatic algorithms and has been designed to reduce the impact of technical and instrumental differences, minimize the variability of manual analysis, and reveal full cellular diversity based on automatic semi-supervised clustering. Data from primary MM patients were manually analyzed by using Infinicyt 2.0 (Cytognos, Salamanca, Spain).

[3] = tested on: naive T cells; assay: Analysis of naive T cell proliferation; conditions: 5 day co-culture with BTZ-treated AMO1 or NCI-H929 cells and DCs
Protocol: DCs were generated from healthy donors PBMCs as described above (“Generation of Mo-DCs” section). Naïve T cells were negatively selected from CD14-PBMCs from the same donors using the Naive Pan T Cell Isolation Kit (Miltenyi Biotec) and frozen. When DCs were generated, either untreated or BTZ-treated multiple myeloma cells were co-cultured with DCs and naïve T cells labeled with CellTrace™ Violet Cell Proliferation Kit (ThermoFisher Scientific) for 5 days. Naïve T cells were also cultured in the absence of multiple myeloma cells and in the presence of phytohemagglutinin (PHA) (20 ug/ml) as positive control. Before analysis, cells were stained with: CD8-FITC (#344704), CD4-PerCP/Cyanine5.5 (#317428) (BioLegend); and LIVE/DEAD™ Fixable Aqua dead Cell Stain (#L34966) (ThermoFisher Scientific). Proliferating CD4 and CD8 T cell subsets were then analyzed using the FlowJo software (Becton, Dickinson & Company).

CC(C)C[C@H](NC(=O)[C@H](Cc1ccccc1)NC(=O)c1cnccn1)B(O)O [BTZ, bortezomib]
phagocytosis of BTZ-treated MM cells by DCs ([1]; AMO1, NCI-H929 WT, BTZ 16 h, then 4 h co-culture): induces functional maturation of dendritic cells (DCs) in vitro; also recorded: enhanced uptake of BTZ-treated MM cells; also recorded: engulfed by monocyte-derived DCs after 4 h of co-culture | phagocytosis of BTZ-treated MM cells by DCs ([1]; AMO1 GABARAP^KO): did not stimulate phagocytosis by DCs; also recorded: GABARAP^KO abrogates phagocytosis by DCs | induction of ICD ([1]; GABARAP^KO in 2 ICD-sensitive cell lines (AMO1, H929)): abrogated the induction of ICD by BTZ | induction of ICD ([1]; KMS11 / GABARAP-null cells): resistant to induction of ICD by BTZ | induction of ICD ([1]; KMS11 / GABARAP-null cells, listed as Bortezomib): does not induce ICD in GABARAP-null cells | functional maturation of co-cultured DCs (phagocytosis assay) ([1]; KMS11 cells (monoallelic deletion of GABARAP)): did not lead to an increase of CRT exposure or functional maturation of co-cultured DCs | T cell subsets (CD4+ EM, total CD8+, CD8+ EM) ([2]; BTZ-treated AMO1 STING^KO vs WT): no significant increase of CD4+EM; total CD8+; and CD8+EM cells | T cell subsets (CD4+ EM, total CD8+, CD8+ EM, CD8+ TEMRA) ([2]; BTZ-treated AMO1 or H929 cells with DCs and T cells, 5 days): significant increase of CD4+ effector memory (EM); total CD8+; CD8+EM and CD8+ terminally differentiated EM (TEMRA) cells | T cell subsets / T cell maturation ([2]; DCs and T cells with BTZ 5 nM in the absence of MM cells, 5 days): not observed by treating DCs and T cells with BTZ in the absence of multiple myeloma cells; also recorded: does not induce T cell maturation | T cell phenotype / priming (CyTOF) ([2]; DCs primed by BTZ-treated AMO1 GABARAP^KO): led to T cell exhaustion; also recorded: GABARAP^KO blocks T cell priming by DCs after BTZ treatment | CD4+ T cell phenotype (CyTOF) ([2]; DCs primed by BTZ-treated AMO1 WT): switched CD4+ T cells towards an effector memory function | CD4+ and CD8+ T cell populations ([2]; autologous BMMCs from MM patients, BTZ 5 nM, 5 days): confirmed the phenotypic changes in both CD4+ and CD8+ T cell populations | proliferation of CD4+ and CD8+ naive T cells [3]: increased proliferation of both CD4+ and CD8+ naïve T cells; also recorded: promotes proliferation of CD4+ and CD8+ naïve T cells
